Data: US20110244497A1, “METHOD FOR JUDGING SUSCEPTIBILITY OF CANCER CELLS TO ANTHRACYCLINE ANTICANCER AGENT AND COMPUTER PROGRAM” (SYSMEX CORPORATION, priority 2010, published 2011)

System: 29 types of breast cancer cell lines
Assay: Measurement of IC50 of doxorubicin, Celltiter Glo Luminescent Cell Viability Assay
Type: cell-based
Conditions: median over 29 human breast cancer cell lines; doxorubicin 0-2000 nM; growth measured 72 hours after culture-medium exchange; used as threshold sensitive/nonsensitive
Experimental: 29 types of breast cancer cell lines shown in Reference example 1 were inoculated into wells on two sheets of microplates at 5000 cells/100 uL/well using culture media containing doxorubicin at 0 nM, 250 nM, 500 nM, 750 nM, 1000 nM, and 2000 nM concentrations, followed by culturing for 24 hours.
Culture media containing doxorubicin at respective concentrations were prepared and the culture medium exchange was performed. Immediately after the culture-medium exchange, the growth of the cells on one of the microplates was measured using Celltiter Glo Luminescent Cell Viavility Assay (Cat#G7571: manufactured by Promega KK.). The remaining microplate was cultured under the culture conditions shown in Reference example 1 for 72 hours after the culture-medium exchange. Thereafter, the growth of the cells was measured using Celltiter Glo Luminescent Cell Viavility Assay (Cat#G7571: manufactured by Promega KK.).
On the basis of the number of the living cells measured, the concentration (IC50) of doxorubicin (the number of […]×100=50) was determined.

COc1cccc2c1C(=O)c1c(O)c3c(c(O)c1C2=O)C[C@@](O)(C(=O)CO)C[C@@H]3O[C@H]1C[C@H](N)[C@H](O)[C@H](C)O1 [doxorubicin]
IC50: 0.392 µM
